From patent US11578100B2, “Cyclic peptides, cyclic peptide conjugates and methods of use thereof” (Florida Atlantic University Board of Trustees, priority 2018, dated 2023)
Where a SMILES comes first, the peptide text is derived from it. Bridges are numbered along the chain shown (N, C = ends). Where no end group is shown, it is not given here. [ ]: non-standard residue; d: D form. Trp(5-OH) = N[C@@H](Cc1c[nH]c2ccc(O)cc12)C(=O)O; Tic = O=C(O)[C@@H]1Cc2ccccc2CN1

Assays:
mice [1] = assay: 55° C. warm water tail-withdrawal test; format: in vivo, mouse; conditions: i.n. administration
[2] = peptide level in mouse brain after i.n. or i.p. administration (LC-MS/MS)
μ opioid receptor (MOR) = molecular target: T1, μ opioid receptor (MOR) (Homo sapiens, UniProt P35372); assay: opioid receptor protein binding radioassay, MOR
T1 construct: expressed in transfected cells; host or cells: CHO cells

mice [3] = assay: observation of adverse effects after i.n. administration
δ opioid receptor (DOR) = molecular target: T2, δ opioid receptor (DOR) (Homo sapiens, UniProt P41143); assay: opioid receptor protein binding radioassay, DOR
T2 construct: expressed in transfected cells; host or cells: CHO cells

[4] = stability in 100% mouse brain homogenate; format: in vitro ADME; conditions: 37° C., RP-HPLC and MALDI TOF MS
Experimental: Peptides Stability Under Physiologically Relevant Conditions and Mode of Action Stability of DADLE-OL in 100% human cerebrospinal fluid and 100% mouse brain homogenate at 37° C. was determined. The disappearance of the intact peptides and formation of proteolytic products was monitored by RP-HPLC and MALDI TOF mass spectrometry. […] Once diffused into the brain, DOR active sequence is released due to proteolytic hydrolysis of DADLE-OL. Fragment 1 was synthesized, and activities of the parent DADLE-OL and fragment 1 were tested in the cAMP inhibition assay (cAMP AlphaScreen™ Assay, Perkin Elmer).

κ opioid receptor (KOR) = molecular target: T3, κ opioid receptor (KOR) (Homo sapiens, UniProt P41145); assay: opioid receptor protein binding radioassay, KOR
T3 construct: expressed in transfected cells; host or cells: CHO cells

mice [5] = assay: rotarod test of motor coordination; conditions: peptides i.n.; U50,488 i.p.
[6] = 30 min after intranasal delivery
From the text: Anatomical and physiological studies identified the midbrain periaqueductal gray (PAG) and its descending projections to the rostral ventromedial medulla (RVM) and spinal cord dorsal horn, as a primary anatomical pathway mediating opioid-based analgesia.

mice [7] = assay: conditioned place preference / aversion; conditions: mouse, in vivo
DOR = molecular target: T4, DOR (Mus musculus, UniProt P32300); assay: antagonism of i.c.v. SNC-80 after i.n. pretreatment; format: in vivo; conditions: SNC-80 i.c.v.
T4 construct: from tissue; host or cells: living mouse (CNS); SNC-80 i.c.v. after i.n. TIPP-OL
T4 sequence (P32300 whole entry): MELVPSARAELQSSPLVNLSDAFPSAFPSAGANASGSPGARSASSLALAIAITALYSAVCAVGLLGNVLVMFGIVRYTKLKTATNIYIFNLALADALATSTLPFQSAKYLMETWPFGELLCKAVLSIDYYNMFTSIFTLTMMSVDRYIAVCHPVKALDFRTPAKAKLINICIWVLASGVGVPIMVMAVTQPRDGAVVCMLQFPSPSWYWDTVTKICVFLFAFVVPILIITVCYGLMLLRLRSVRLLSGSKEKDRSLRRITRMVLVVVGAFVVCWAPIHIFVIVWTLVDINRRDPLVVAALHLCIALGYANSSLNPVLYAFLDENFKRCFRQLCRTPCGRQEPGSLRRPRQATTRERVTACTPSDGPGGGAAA

T2 sequence (P41143 whole entry): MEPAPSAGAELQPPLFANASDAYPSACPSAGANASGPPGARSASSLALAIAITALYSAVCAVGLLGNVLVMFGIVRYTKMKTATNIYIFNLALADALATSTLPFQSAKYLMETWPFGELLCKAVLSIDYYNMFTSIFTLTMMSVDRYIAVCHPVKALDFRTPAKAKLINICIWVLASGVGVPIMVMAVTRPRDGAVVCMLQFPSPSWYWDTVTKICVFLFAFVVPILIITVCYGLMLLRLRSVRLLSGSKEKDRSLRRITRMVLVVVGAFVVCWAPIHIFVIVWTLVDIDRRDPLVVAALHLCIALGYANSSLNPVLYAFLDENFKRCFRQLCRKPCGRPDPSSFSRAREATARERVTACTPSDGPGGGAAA
T1 sequence (P35372 whole entry): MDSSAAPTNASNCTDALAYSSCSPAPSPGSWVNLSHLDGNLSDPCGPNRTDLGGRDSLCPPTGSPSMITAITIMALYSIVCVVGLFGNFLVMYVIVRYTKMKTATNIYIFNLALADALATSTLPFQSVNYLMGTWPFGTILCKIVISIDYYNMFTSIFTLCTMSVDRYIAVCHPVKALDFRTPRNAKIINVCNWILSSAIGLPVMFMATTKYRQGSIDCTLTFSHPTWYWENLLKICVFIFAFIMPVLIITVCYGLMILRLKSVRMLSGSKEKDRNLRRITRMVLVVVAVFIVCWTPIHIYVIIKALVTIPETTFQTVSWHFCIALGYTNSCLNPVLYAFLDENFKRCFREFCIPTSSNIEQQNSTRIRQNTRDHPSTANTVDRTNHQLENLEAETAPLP
T3 sequence (P41145 whole entry): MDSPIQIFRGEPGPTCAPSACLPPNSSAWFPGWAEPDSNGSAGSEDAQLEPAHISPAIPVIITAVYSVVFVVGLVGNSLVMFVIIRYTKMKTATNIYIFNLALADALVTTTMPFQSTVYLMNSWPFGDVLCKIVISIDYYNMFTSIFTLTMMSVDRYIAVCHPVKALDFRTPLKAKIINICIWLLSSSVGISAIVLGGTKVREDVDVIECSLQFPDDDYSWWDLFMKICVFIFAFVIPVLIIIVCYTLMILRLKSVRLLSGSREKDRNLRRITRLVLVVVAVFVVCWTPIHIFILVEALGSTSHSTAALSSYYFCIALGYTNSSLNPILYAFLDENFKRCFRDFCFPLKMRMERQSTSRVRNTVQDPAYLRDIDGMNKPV

With `CC(C)C[C@@H](NC(=O)[C@H](Cc1ccccc1)NC(=O)CNC(=O)[C@@H](C)NC(=O)[C@@H](N)Cc1ccc(O)cc1)C(=O)O` [DADLE, [D-Ala^2, D-Leu^5] enkephalin, reference compound] the “antinociception in tail-withdrawal test” value (mice [1]) was “did not themselves produce antinociception”.

In the case of `CC(C)C[C@@H]1NC(=O)[C@H](C(C)C)NC(=O)CNC(=O)[C@H](CC(N)=O)NC(=O)[C@@H]2CCCN2C(=O)[C@H](Cc2ccc(O)cc2)NC(=O)[C@H](CCCNC(=N)N)NC(=O)[C@H](Cc2ccccc2)NC(=O)[C@@H](NC(=O)[C@H](CCCCN)NC(=O)[C@@H]2CCCN2C(=O)[C@H](CO)NC(=O)[C@H](C)NC(=O)[C@@H](N)Cc2ccc(O)cc2)CSSC[C@@H](C(=O)N[C@H](C(N)=O)[C@@H](C)O)NC(=O)[C@H](C)NC1=O` [OL, Y^1A^2S^3P^4K^5-cyclo[C^6F^7R^8Y^9P^10N^11G^12V^13L^14A^15C^16]T^17, reference compound] (H-YASPKCFRYPNGVLACT-NH2; disulfide 6-16; N-terminus and C-terminus assumed), the “detection in mouse brain after i.n. administration” value ([2]; 30 minutes after i.n. (30 μg, 6 μL/nostril)) is reported as “can be detected in the mouse brain”, the “time to elimination from the brain” value ([2]; after i.n. administration) is reported as “about 240 minutes” and the “Kd opioid receptor μ” value (μ opioid receptor (MOR)) is reported as “n.o”. For the same molecule, the adverse effects (mice [3]) was “no adverse effects were observed”, the “Kd opioid receptor δ” value (δ opioid receptor (DOR)) was “n.o” and the “stability in 100% mouse brain homogenate” value [4] was “proteolytic cleavage of the N-terminal Tyr^1 and Ala^2”. For the same molecule, the “Kd opioid receptor K” value (κ opioid receptor (KOR)) was “n.o”.

For `CC(C)C[C@@H]1NC(=O)[C@H](CCCCN)NC(=O)[C@@H]2CCCN2C(=O)[C@H](Cc2c[nH]c3ccccc23)NC(=O)[C@H](Cc2ccccc2)NC(=O)CNC(=O)[C@H](CCCNC(=N)N)NC(=O)[C@H](Cc2ccccc2)NC(=O)[C@@H](NC(=O)[C@H](CCCCN)NC(=O)[C@@H]2CCCN2C(=O)[C@H](CO)NC(=O)[C@H](C)NC(=O)[C@@H](N)Cc2ccc(O)cc2)CSSC[C@@H](C(=O)N[C@H](C(N)=O)[C@@H](C)O)NC(=O)[C@H](C)NC1=O` [OLKOR-L1, Y^1A^2S^3P^4K^5-cyclo[C^6F^7R^8G^9F^10W^11P^12K^13L^14A^15C^16]T^17] (H-YASPKCFRGFWPKLACT-NH2; disulfide 6-16), the “motor coordination in rotarod test” value (mice [5]) was “no impairment in motor coordination in mice was observed” and the adverse effects (mice [3]) was “no other adverse effects were observed”.

In the case of `CC(C)C[C@@H]1NC(=O)[C@H](CCCCN)NC(=O)[C@@H]2CCCN2C(=O)[C@H](Cc2c[nH]c3ccccc23)NC(=O)[C@H](Cc2ccccc2)NC(=O)CNC(=O)[C@H](CCCNC(=N)N)NC(=O)[C@H](Cc2ccccc2)NC(=O)[C@@H](NC(=O)[C@H](CCCCN)NC(=O)[C@@H]2CCCN2C(=O)[C@H](CO)NC(=O)[C@H](C)NC(=O)[C@@H](N)Cc2c[nH]c3ccc(O)cc23)CSSC[C@@H](C(=O)N[C@H](C(N)=O)[C@@H](C)O)NC(=O)[C@H](C)NC1=O` [OLKOR-L1-5HTrp, 5-HTrp^1-A^2S^3P^4K^5-cyclo[C^6F^7R^8G^9F^10W^11P^12K^13L^14A^15C^16]T^17] (H-[Trp(5-OH)]ASPKCFRGFWPKLACT-NH2; disulfide 6-16), the “5-HTrp accumulation in the midbrain” value [6] is reported as “significant increase in 5-HTrp accumulation in the midbrain”, the “conditioned place aversion (CPA)” value (mice [7]) is reported as “produced CPA” and the “conditioned place preference (reward)” value (mice [7]) is reported as “do not produce reward”.

In the case of `CC(C)C[C@@H]1NC(=O)[C@H](CC(N)=O)NC(=O)[C@H](C(C)C)NC(=O)[C@@H]2CCCN2C(=O)[C@H](Cc2ccccc2)NC(=O)[C@H](Cc2c[nH]cn2)NC(=O)[C@H](CCCNC(=N)N)NC(=O)[C@H](Cc2ccccc2)NC(=O)[C@@H](NC(=O)[C@H](CCCCN)NC(=O)[C@@H]2CCCN2C(=O)[C@H](CO)NC(=O)[C@H](C)NC(=O)[C@@H](N)Cc2ccc(O)cc2)CSSC[C@@H](C(=O)N[C@H](C(N)=O)[C@@H](C)O)NC(=O)[C@H](C)NC1=O` [OLMOR-L1, Y^1A^2S^3P^4K^5-cyclo[C^6F^7R^8H^9F^10P^11V^12N^13L^14A^15C^16]T^17] (H-YASPKCFRHFPVNLACT-NH2; disulfide 6-16), the “conditioned place aversion (CPA)” value (mice [7]) is reported as “did not induce significant conditioned place preference or aversion”, the “conditioned place preference (reward)” value (mice [7]) is reported as “did not induce significant conditioned place preference or aversion” and the “motor coordination in rotarod test” value (mice [5]) is reported as “did not affect motor coordination and balance”.

In the case of “Y^1A^2S^3P^4K^5-cyclo[C^6F^7R^8Y^9Tic^10F^11F^12V^13L^14A^15C^16]T^17 (YASPKCFRY[Tic]FFVLACT; disulfide 6-16 (inferred)) [TIPP-OL]”, the “antagonism of the effect of SNC-80” value (DOR) is reported as “fully antagonizes the effect of a potent DOR agonist SNC-80”.

In the case of “Y^1P^2W^3F^4K^5-cyclo[C^6F^7R^8Y^9Tic^10F^11F^12V^13L^14A^15C^16]T^17 (YPWFKCFRY[Tic]FFVLACT; disulfide 6-16 (inferred)) [TIPP-EM1-OL]”, the “antinociception in tail-withdrawal test” value (mice [1]) is reported as “exhibits antinociceptive effects”.
